Usually melting point stands for the temperature, or range, at which the solid turns liquid.

The text below walks through data of a melting point compilation (Tetko et al.).

A value given as a limit tells only on which side of the number the result lay.

`CCC(C)CC(C)(C)C` (stereo not given) registered a melting point of -120 °C. On to `CN(CC(=O)N1CCOCC1)Cc1c(Cl)cccc1NC(=O)c1ccccc1`, for which the melting point worked out at 123 °C. The value for `Nc1nnc(-c2ccccc2)c(Nc2ccc(Cl)cc2Cl)n1` was 222 to 223 °C; that for `Cc1nc2cc(Cl)ccc2s1` was 69 °C. To `CC(=O)Oc1ccccc1C(=O)Oc1ccccc1` belongs 96 °C; to `CCCCCCCCCCCCOc1ccc(N=Cc2ccc(N(C)C)cc2)cc1`, 94.5 °C. To `CC(=O)c1sc2nc(-c3cccs3)cc(C(F)(F)F)c2c1N` belongs 171 to 172 °C; to `Cc1ccccc1NN=C1C(=O)NC(=S)NC1=O`, 242 °C; to `NS(=O)(=O)c1cc2c(cc1Cl)NC(Cc1ccc(F)cc1)NS2(=O)=O` (stereo not given), 239 °C. For the molecule `Oc1c(Cl)c(Cl)c(Cl)c(Cl)c1Cl`, the melting point came out at 191 °C. For the molecule `O=C(NO)c1ccccc1`, the melting point turned out to be 128 °C. The value for `CC(O)C(NC(=O)OC(C)(C)C)C(=O)O` (stereo not given) was 79 °C. To `COc1c(C)c(C)c(OC)c2c1CC2=O` belongs 109 °C. To `O=[N+]([O-])c1ccc(OCC2CO2)cc1` (stereo not given) belongs 54 to 55 °C; to `COC(=O)c1ccc(Cl)c(Cl)c1`, 45 °C; to `Cn1c(/C(C#N)=C/c2c(Cl)cccc2Cl)nc2ccccc21`, 185 °C. The molecule `O=Cc1cccc(N2CCOCC2)n1` registered a melting point of 93 to 95 °C. The value for `Brc1ccc(Oc2ccc(Br)c(Br)c2)c(Br)c1` was less than 20 °C; that for `O=C1CCCC(Cl)(Cl)C1(O)O` was 120 to 124 °C; that for `OCCN(CCO)CCc1ccc(COc2ccccc2)cc1` was 83 °C. The value for `CCCCC(O)C(C)C` (stereo not given) was -85 °C; that for `Fc1c(Cl)c(F)c(Br)c(F)c1Cl` was 58 to 59.5 °C; that for `CNCc1ccc(N2CCOCC2)s1` was 38 to 39 °C. To `ON=Cc1cccc(Br)c1` belongs 72 °C. `CSC(SC)=C(C#N)C(=O)c1cccc(Cl)c1` returned a melting point of 88 to 91 °C.

Regarding `CC(C)NC(=O)C(Br)C(C)(C)C` (stereo not given), the melting point lay in the range of 128 to 130 °C. The value for `CC(C)(C)N(NC(=O)c1ccccc1)C(=O)c1c(F)cccc1F` was 194 °C.

`CC(=O)N(c1ccc(C)cc1)c1nc(CCl)cs1` registered a melting point of 124 to 125 °C.

`CC(C)OC(=O)N=NC(=O)OC(C)C` yielded a melting point of 3 to 5 °C. To `CCOC(=O)N=C(c1ccc[nH]1)N1CCOCC1` belongs 147 to 149 °C; to `C/C=C/Cl`, -99 °C. To `CCNc1ccc([N+](=O)[O-])cc1[N+](=O)[O-]` belongs 108 to 119 °C; to `Nc1cccc(Cc2cccc(N)c2)c1`, 81.5 °C.

Molecule `O=C(O)c1cc([N+](=O)[O-])ccc1Br` showed a melting point of 180 °C. The value for `N#CCc1nc(-c2ccc([N+](=O)[O-])cc2)cs1` was 147 to 148 °C; that for `COC(=O)c1cscc1N` was 35 to 38 °C; that for `CC(C)(C)c1cc(C(=O)NN)n(Cc2ccc(F)cc2)n1` was 183 to 185 °C.

For `CC1=CP(=O)(c2ccccc2)CC1` (stereo not given), the melting point was 58 to 62 °C. Molecule `COc1ccc(-c2csc(/C(C#N)=N\Nc3ccc(O)cc3)n2)cc1` showed a melting point of 235 °C. On to `CSc1ncc(Cl)c(C(=O)O)n1`, for which the melting point was 200 °C.

`O=CCCCCC=O` yielded a melting point of -8 °C. Turning to `O=C(CCCCl)c1ccc(F)cc1`, the melting point stood at 6 °C.

`CC(=O)C(=NNc1ccc(C(=O)O)cc1)C(C)=O` came in with a melting point of 215 °C.

Molecule `Cc1c(Br)cc([N+](=O)[O-])cc1Br` gave a melting point of 56 °C.

The molecule `C=CC1(C)CCC2C(=CCC3C(C)(C(=O)O)CCCC23C)C1` (stereo not given) registered a melting point of 160 °C.
